Assay results taken from the supplement of paper PMC4862054.

Columns and labels:
[1] = test system: SK-BR-3; details: 72 h
Method in brief: (§1)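 To measure viability, fluorescence at 560/590 nm was read after 2.5 µl CellTiter-Blue had been added for 2 h at 37 °C. Cells from breast cancer lines had been seeded in 20 µl suspension onto 384-well plates pre-loaded with compound dissolved in 5 µl medium and kept for 72 h. EC50 comes from a fitted percent-inhibition dose-response curve censored at the highest concentration, after per-plate normalisation to vehicle and a positive kill control, Z'-factor checks, and removal of rows with zero drug sensitivity score.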

[2] = test system: MDA-MB-231; details: 72 h
Method in brief: as §1

[3] = test system: BT-474; details: 72 h
Method in brief: as §1

[4] = test system: CAL-120; details: 72 h
Method in brief: as §1

[5] = test system: MDA-MB-468; details: 72 h
Method in brief: as §1

[6] = test system: Hs578T; details: 72 h
Method in brief: as §1

[7] = test system: HCC1599; experiment: drug sensitivity score (DSS), CellTox Green (DSS (AUC-based score)); higher = stronger drug effect (viability inhibition or cytotoxicity); extreme values may be limits of the assay; details: incubation time: 72 h
Method in brief: (§2)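 Normalisation on every plate relied on 0.1 % DMSO and a positive kill control. The plates, 384-well format, held compound at 5 concentrations 10-fold apart across a compound-specific 10,000-fold range, and breast cancer cell lines in 20 µl suspension were incubated on them for 72 h before CellTox Green and then CellTiter-Glo readings. The drug sensitivity score derives from the area under the fitted dose-response curve.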

[8] = test system: CAL-120; experiment: as above; details: incubation time: 72 h
Method in brief: as §2

[9] = test system: MDA-MB-468; experiment: as above; details: incubation time: 72 h
Method in brief: as §2

[10] = test system: CAL-85-1; details: 72 h
Method in brief: (§3)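 For viability and cell death testing, 384-well plates carried compound at 5 concentrations in 10-fold steps over a compound-specific 10,000-fold range, and breast cancer cell lines were seeded in 20 µl suspension. After 72 h incubation, cell death was read by CellTox Green fluorescence (485/520 nm) before viability was read by CellTiter-Glo luminescence. EC50 was fitted from the dose-response curves and censored at the top concentration. Normalisation on each plate was to 0.1 % DMSO and a positive kill control.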

[11] = test system: HCC1937; details: 72 h
Method in brief: as §3

[12] = test system: CAL-148; details: 72 h
Method in brief: as §3

[13] = test system: MCF-10A; details: 72 h
Method in brief: as §3

[14] = test system: HDQ-P1; details: 72 h
Method in brief: as §1

[15] = test system: MDA-MB-453; details: 72 h
Method in brief: as §1

[16] = test system: MDA-MB-436; details: 72 h
Method in brief: as §1

[17] = test system: HCC1937; details: 72 h; remark: listed apart in the source
Method in brief: as §1

[18] = test system: MFM-223; details: 72 h
Method in brief: as §1

[19] = test system: BT-549; details: 72 h
Method in brief: as §1

[20] = test system: SK-BR-3; details: 72 h; remark: listed apart in the source
Method in brief: as §3

[21] = test system: HDQ-P1; details: 72 h; remark: listed apart in the source
Method in brief: as §3

[22] = test system: MDA-MB-436; details: 72 h; remark: listed apart in the source
Method in brief: as §3

[23] = test system: DU-4475; details: 72 h
Method in brief: as §3

[24] = test system: HCC1143; details: 72 h
Method in brief: as §3

[25] = test system: CAL-51; details: 72 h
Method in brief: as §3

[26] = test system: MDA-MB-453; details: 72 h; remark: listed apart in the source
Method in brief: as §3

[27] = test system: CAL-120; details: 72 h; remark: listed apart in the source
Method in brief: as §3

[28] = test system: Hs578T; details: 72 h; remark: listed apart in the source
Method in brief: as §3

[29] = test system: MFM-223; details: 72 h; remark: listed apart in the source
Method in brief: as §3

[30] = test system: BT-549; details: 72 h; remark: listed apart in the source
Method in brief: as §3

[31] = test system: CAL-85-1; details: 72 h; remark: listed apart in the source
Method in brief: as §1

[32] = test system: DU-4475; details: 72 h; remark: listed apart in the source
Method in brief: as §1

[33] = test system: CAL-51; details: 72 h; remark: listed apart in the source
Method in brief: as §1

[34] = test system: HCC1599; details: 72 h
Method in brief: as §3

[35] = test system: MDA-MB-231; details: 72 h; remark: listed apart in the source
Method in brief: as §3

[36] = test system: BT-474; details: 72 h; remark: listed apart in the source
Method in brief: as §3

SMILES	EC50, CellTiter-Blue viability [1]	EC50, CellTiter-Blue viability [2]	EC50, CellTiter-Blue viability [3]	EC50, CellTiter-Blue viability [4]	EC50, CellTiter-Blue viability [5]	EC50, CellTiter-Blue viability [6]	drug sensitivity score [7]	drug sensitivity score [8]	drug sensitivity score [9]	EC50, CellTiter-Glo [10]	EC50, CellTiter-Glo [11]	EC50, CellTiter-Glo [12]	EC50, CellTiter-Glo [13]	EC50, CellTiter-Blue viability [14]	EC50, CellTiter-Blue viability [15]	EC50, CellTiter-Blue viability [16]	EC50, CellTiter-Blue viability [17]	EC50, CellTiter-Blue viability [18]	EC50, CellTiter-Blue viability [19]	EC50, CellTiter-Glo [20]	EC50, CellTiter-Glo [21]	EC50, CellTiter-Glo [22]	EC50, CellTiter-Glo [23]	EC50, CellTiter-Glo [24]	EC50, CellTiter-Glo [25]	EC50, CellTiter-Glo [26]	EC50, CellTiter-Glo [27]	EC50, CellTiter-Glo [28]	EC50, CellTiter-Glo [29]	EC50, CellTiter-Glo [30]	EC50, CellTiter-Blue viability [31]	EC50, CellTiter-Blue viability [32]	EC50, CellTiter-Blue viability [33]	EC50, CellTiter-Glo [34]	EC50, CellTiter-Glo [35]	EC50, CellTiter-Glo [36]
COc1cc2ncnc(Nc3ccc(F)c(Cl)c3)c2cc1OCCCN1CCOCC1 [Gefitinib]	1580 nM	> 10000 nM	1000 nM	> 10000 nM	808 nM	1060 nM	0	0	0	714 nM	> 10000 nM	788 nM	84.2 nM	3330 nM	5030 nM	–	–	–	–	–	–	–	–	–	–	–	–	–	–	–	–	–	–	–	–	–
CO[C@H]1C[C@@H]2CC[C@@H](C)[C@@](O)(O2)C(=O)C(=O)N2CCCC[C@H]2C(=O)O[C@H]([C@H](C)C[C@@H]2CC[C@@H](OP(C)(C)=O)[C@H](OC)C2)CC(=O)[C@H](C)/C=C(\C)[C@@H](O)[C@@H](OC)C(=O)[C@H](C)C[C@H](C)/C=C/C=C/C=C/1C [Ridaforolimus]	1.36 nM	0.95 nM	0.55 nM	1 nM	0.39 nM	0.48 nM	0	0	0	0.57 nM	0.46 nM	2.27 nM	–	3.88 nM	0.59 nM	> 1000 nM	1.12 nM	0.24 nM	0.19 nM	0.78 nM	6.62 nM	1.03 nM	2.24 nM	0.91 nM	1.61 nM	1.22 nM	0.9 nM	0.42 nM	0.98 nM	0.44 nM	0.17 nM	1.13 nM	1.65 nM	–	–	–
COCC[n+]1c2c(n(Cc3cnccn3)c1C)C(=O)c1ccccc1C2=O [YM155]	8.44 nM	2.85 nM	19.4 nM	3.68 nM	2.99 nM	102 nM	11.8	39	37.3	5.5 nM	11.2 nM	19.9 nM	27.1 nM	11.4 nM	6.99 nM	7.68 nM	4.46 nM	17.3 nM	50.8 nM	16.8 nM	17.3 nM	3.9 nM	57.8 nM	11.4 nM	16.6 nM	25.2 nM	3.32 nM	212 nM	27.2 nM	65.5 nM	6.98 nM	114 nM	20.2 nM	7.29 nM	8.02 nM	4.16 nM
